The values below come from patent publication US9145354B2, “Pharmaceutical compounds” (priority 2011, dated 2015).

The experiment addresses full length NS3/4a (Hepatitis C virus genotype 1b (isolate BK) (HCV), UniProt P26663). The experiment is described as follows: NS3 Protease Assay (Example A), FRET-based. The class given is biochemical. The gist of the method: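 Initial rates were taken from fluorescence progress curves over 30 min at room temperature, and IC50 was fitted across replicates. In-house full-length NS3/4a cleaved a FRET peptide (5-FAMsp/QXL520) from the NS4A/B site. Medium: 50 mM Tris pH8, 20 mM DTT, 1% CHAPS, 10% glycerol, 5% DMSO.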

The mark [1] stands for this setting: HCV NS3 protease assay, full length NS3/4a, read-out: Assay A IC50 (μM) average.
Where [2] appears, read: read-out: IC50 against the protease activity of the full length NS3/4a.
[3] abbreviates: stated as IC50 less than 30 μM or at least 40% inhibition at a concentration of 100 μM, read-out: IC50 against the protease activity of the full length NS3/4a.

Like-named read-outs stand apart in the source and are kept apart here.

Sequence of full length NS3/4a (P26663 1027-1657): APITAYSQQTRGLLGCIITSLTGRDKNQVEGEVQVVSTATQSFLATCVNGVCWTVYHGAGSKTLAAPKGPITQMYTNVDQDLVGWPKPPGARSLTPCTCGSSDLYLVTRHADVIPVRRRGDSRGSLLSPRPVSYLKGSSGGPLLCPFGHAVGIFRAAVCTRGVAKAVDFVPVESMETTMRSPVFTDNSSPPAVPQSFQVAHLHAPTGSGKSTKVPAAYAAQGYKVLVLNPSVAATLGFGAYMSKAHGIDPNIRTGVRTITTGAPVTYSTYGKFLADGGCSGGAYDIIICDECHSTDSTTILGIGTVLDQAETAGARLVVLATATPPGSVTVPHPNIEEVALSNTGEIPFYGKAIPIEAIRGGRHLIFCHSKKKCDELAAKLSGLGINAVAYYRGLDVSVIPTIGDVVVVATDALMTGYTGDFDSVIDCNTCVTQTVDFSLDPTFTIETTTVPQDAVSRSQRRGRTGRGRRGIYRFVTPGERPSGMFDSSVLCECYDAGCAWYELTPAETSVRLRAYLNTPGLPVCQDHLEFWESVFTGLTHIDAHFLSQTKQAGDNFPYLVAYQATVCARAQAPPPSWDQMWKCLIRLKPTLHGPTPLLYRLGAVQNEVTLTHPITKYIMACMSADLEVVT

Turning to `CC[C@@H](N[C@H](C)CC(N)=O)c1ccc(Cl)c(C(=O)c2ccc3c(c2)OCC(=O)N3)c1F` [Example 248, (3R)-3-{[(1R)-1-{4-chloro-2-fluoro-3-[(3-oxo-3,4-dihydro-2H-1,4-benzoxazin-7-I)carbonyl]phenyl}propyl]amino}butanamide], the IC50 runs as follows: under setting [1], 2 µM; under setting [2], 1 to 5 µM.

For `CC[C@@H](N)c1ccc(Cl)c(C(=O)c2cn[nH]c2)c1F` [Example 55, (1R)-1-{4-chloro-2-fluoro-3-[(1H-pyrazol-4-yl)carbonyl]phenyl}propan-1-amine], the IC50 was 4.4 µM under setting [1] and 1 to 5 µM under setting [2].

In the case of `CC[C@@H](N)c1ccc(Cl)c(C(=O)c2ccc(O)cc2)c1F` (stereo in doubt) [Example 193, [3-(1-Amino-propyl)-6-chloro-2-fluoro-phenyl]-(4-hydroxy-phenyl)-methanone], the IC50 reads like this: under setting [1], 0.31 µM; under setting [2], < 1 µM.

For the compound `CC[C@@H](N[C@H](C)CC(N)=O)c1ccc(Cl)c(C(=O)c2cccc(O)c2)c1F` [Example 228, (3R)-3-{[(1R)-1-{4-chloro-2-fluoro-3-[(3-hydroxyphenyl)carbonyl]phenyl}propyl]amino}butanamide], the IC50 was 0.73 µM under setting [1] and < 1 µM under setting [2].

As for `CC[C@@H](N)c1ccc(Cl)c(C(=O)c2ccc(C#N)nc2)c1F` [Example 34, 5-({3-[(1R)-1-aminopropyl]-6-chloro-2-fluorophenyl}carbonyl)pyridine-2-carbonitrile], the inhibition (as a rule, the relative decrease from the control value, in per cent) at 3 µM (@ 3 uM) stood at 55%. In addition, under setting [2], the IC50 fell in the range of 1 to 5 µM.

Regarding `CC[C@@H](N[C@H](C)CC(N)=O)c1ccc(Cl)c(C(=O)c2ccc(N)c(Cl)c2)c1F` [Example 244, (3R)-3-{[(1R)-1-{3-[(4-amino-3-chlorophenyl)carbonyl]-4-chloro-2-fluorophenyl}propyl]amino} butanamide], the IC50 under setting [1] amounted to 0.38 µM.

In the case of `CC[C@@H](NCC(C)(C)C(N)=O)c1ccc(Cl)c(C(=O)c2cccnc2)c1F` [Example 172, 3-{(R)-1-[4-Chloro-2-fluoro-3-(pyridine-3-carbonyl)-phenyl]-propylamino}-2,2-dimethyl-propionamide], the IC50 is, setting by setting: under setting [1], 1.6 µM; under setting [2], 1 to 5 µM.

With `CCC(NC[C@H](C)C(N)=O)c1ccc(Cl)c(C(=O)c2cccnc2)c1F` (stereo in doubt) [Example 175, (2S)-3-{[(1R)-1-{4-chloro-2-fluoro-3-[(pyridin-3-yl)carbonyl]phenyl}-propyl]amino}-2-methylpropanamide], the IC50 was 1.1 µM under setting [1] and 1 to 5 µM under setting [2].

On to `CC[C@@H](N[C@H](C)CC(N)=O)c1ccc(Cl)c(C(=O)c2cnc(N)cn2)c1F` [Example 135, (3R)-3-{[(1R)-1-{3-[(5-aminopyrazin-2-yl)carbonyl]-4-chloro-2-fluorophenyl}propyl]-amino}butanamide], for which the IC50 by setting is: under setting [1], 3.4 µM; under setting [2], 1 to 5 µM.

In turn, `CC[C@H](N[C@@H](C)CC(=O)NCCN)c1ccc(Cl)c(C(=O)c2ccccc2)c1F` [Example 89, (3S)-N-(2-aminoethyl)-3-{[(1S)-1-(3-benzoyl-4-chloro-2-fluorophenyl)propyl]-amino}butanamide] showed an inhibition at 0.03 µM (@ 0.03 uM) of 54%.

`CC[C@@H](N)c1ccc(Cl)c(C(=O)c2ccc[n+]([O-])c2)c1F` [Example 25, [3-((R)-1-Amino-propyl)-6-chloro-2-fluoro-phenyl]-(1-oxy-pyridin-3-yl)-methanone]: under “@ 30 uM”, the inhibition at 30 µM amounted to 59%. Also, the IC50 under setting [3] is < 30 µM.

`CC[C@@H](N[C@H]1CCOC1)c1ccc(Cl)c(C(=O)c2cccnc2)c1F` [Example 293, (3S)-N-[(1R)-1-{4-chloro-2-fluoro-3-[(pyridin-3-yl)carbonyl]phenyl}propyl] oxolan-3-amine] came in with an inhibition at 10 µM of 11%.

With `CC[C@@H](N[C@H](C)CC(N)=O)c1ccc(Cl)c(C(=O)c2cc(C)on2)c1F` [Example 111, (3R)-3-{[(1R)-1-{4-chloro-2-fluoro-3-[(5-methyl-1,2-oxazol-3-yl)carbonyl]-phenyl}-propyl]amino}-butanamide], the IC50 reads like this: under setting [1], 3.1 µM; under setting [2], 1 to 5 µM.

With `CC[C@@H](N)c1ccc(Cl)c(C(=O)c2cccc(O)c2)c1F` [Example 204, 3-({3-[(1R)-1-aminopropyl]-6-chloro-2-fluorophenyl}-carbonyl)phenol], the IC50 under setting [1] turned out to be 0.17 µM.

Regarding `CC[C@@H](N[C@H](C)C1(C(N)=O)CC1)c1ccc(Cl)c(C(=O)c2cccnc2)c1F` [Example 131, 1-[(1R)-1-{[(1R)-1-{4-chloro-2-fluoro-3-[(pyridin-3-yl)carbonyl]phenyl}-propyl]-amino}ethyl]-cyclopropane-1-carboxamide], the IC50 under setting [1] was 7.9 µM and the IC50 under setting [3] was < 30 µM.

Take `CC[C@H](N[C@H](C)CC(N)=O)c1ccc(Cl)c(C(=O)c2ccccc2)c1F` [Example 85, (3R)-3-{[(1S)-1-(3-benzoyl-4-chloro-2-fluorophenyl)-propyl]-amino}butanamide]: under setting [1], the IC50 came to 0.061 µM.

`CC[C@@H](N[C@@H](C)CC(N)=O)c1ccc(Cl)c(C(=O)c2ccc(C(N)=O)cc2)c1F` [Example 146, 4-({3-[(1R)-1-{[(2S)-1-Carbamoylpropan-2-yl]amino}propyl]-6-chloro-2-fluorophenyl}carbonyl)-benzamide] registered an inhibition at 0.3 µM of 56%.

`CC[C@@H](N[C@@H](C)CC(N)=O)c1ccc(Cl)c(C(=O)c2ccncn2)c1F` [Example 99, (3S)-3-{[(1R)-1-{4-chloro-2-fluoro-3-[(pyrimidin-4-yl)carbonyl]phenyl}propyl]-amino}butanamide]: under setting [1], the IC50 was determined as 0.25 µM.

As to `CC[C@@H](N[C@@H]1CCOC1)c1ccc(Cl)c(C(=O)c2cccnc2)c1F` [Example 292, (3R)-N-[(1R)-1-{4-chloro-2-fluoro-3-[(pyridin-3-yl)carbonyl]phenyl}propyl] oxolan-3-amine], testing at 10 µM gave an inhibition of 4%.

As to `CC[C@@H](N[C@H](C)CC(N)=O)c1ccc(Cl)c(C(=O)c2ccc(-n3cc(CO)cn3)nc2)c1F` [Example 160, (3R)-3-{[(1R)-1-[4-chloro-2-fluoro-3-({6-[4-(hydroxymethyl)-1H-pyrazol-1-yl]pyridin-3-yl}carbonyl)phenyl]-propyl]amino}-butanamide], the IC50 is, setting by setting: under setting [1], 4.2 µM; under setting [2], 1 to 5 µM.

Consider `CC[C@@H](N[C@H](C)CC(N)=O)c1ccc(Cl)c(C(=O)c2ccc(N)c(C)c2)c1F` [Example 260, (3R)-3-{[(1R)-1-{3-[(4-amino-3-methylphenyl)carbonyl]-4-chloro-2-fluorophenyl}propyl]amino}butanamide], for which the inhibition at 0.3 µM came out at 39%.

Consider `CC[C@@H](N[C@H](C)CC(N)=O)c1ccc(Cl)c(C(=O)c2ccncc2)c1F` [Example 107, (3R)-3-{[(1R)-1-{4-chloro-2-fluoro-3-[(pyridin-4-yl)carbonyl]phenyl}propyl]-amino}butanamide], for which the IC50 runs as follows: under setting [1], 1.1 µM; under setting [2], 1 to 5 µM.

Take `CC[C@@H](NC(C)C)c1ccc(Cl)c(C(=O)c2cccnc2)c1F` [Example 285, [(1R)-1-{4-chloro-2-fluoro-3-[(pyridin-3-yl)carbonyl]phenyl}propyl] (propan-2-yl)amine]: the IC50 runs as follows: under setting [1], 2 µM; under setting [2], 1 to 5 µM.
